US4194006A, “Therapeutic application of acetyl-d,l-carnitine and other acyl derivatives of d,l-carnitine” (priority 1977, dated 1980)
Where two headings read alike, the source gives them in different places.

Experiments:
in vivo = settings: mouse, in vivo, iv
Text: The tolerance of acetyl-d,l-carnitine and of the other aforementioned acyl derivatives of the formula (I), as well as their salts were investigated by comparing the LD50 obtained by administering the compounds intravenously in mice with the LD50 obtained under the same experimental conditions by intravenous injection of d,l-carnitine.

isolated rabbit hearts [1] = experiment: cardiokinetic effect on isolated heart (Langendorff): contractile force after anoxia, positive inotropic effect; settings: 10 minutes from interruption of anoxic period
Method in brief: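 Rabbit hearts were perfused Langendorff-style with oxygenated Ringer at 38.2 °C. Anoxia was applied until contractile force dropped by 80%, then the hearts were reoxygenated with or without compound. Contractile force was expressed as a percentage 10 min after the anoxic period ended.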

isolated rabbit hearts [2] = experiment: coronary vasodilator effect: coronary flow, isolated heart (Langendorff)
Method in brief: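 Langendorff-perfused isolated rabbit hearts in oxygenated Ringer at 38.2° C; anoxia imposed until contractile force fell by 80%, then reoxygenated with or without test compound. Coronary flow, isometric contraction and ECG recorded by polygraph.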

isolated rat atrium = experiment: antiarrhythmic effect, isolated rat atrium method of M. Libonati and G. Segre; settings: Rattus norvegicus
female rats = experiment: antifatigue effect: rota-rod; type: in vivo, rat; settings: Rattus norvegicus, ip, 0.25 h; for responders at 100 mg/kg: read-out: percentage of animals staying on the rota-rod more than 180 seconds, 100 mg/kg i.p.; for responders at 200 mg/kg: read-out: percentage of animals staying on the rota-rod more than 180 seconds, 200 mg/kg i.p.; for responders at 300 mg/kg: 300 mg/kg i.p.
Method in brief: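 Female rats dosed intraperitoneally in saline, with controls given saline alone. Every 15 min after treatment animals were placed on a 6 cm rod rotating at 16 r.p.m. Value is the percentage of animals staying on the rod for more than 180 s, per session.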

[3] = read-out: Mean percent variation versus controls: excitability (-%)
[4] = read-out: Mean percent variation versus controls: frequency max (-%)
[5] = read-out: Mean percent variation versus controls: refractory period (+%)
[6] = read-out: Mean percent variation versus controls: rheobase (+%)

In the case of CC(=O)OC(CC(=O)[O-])C[N+](C)(C)C (racemic) [acetyl-d,l-carnitine], the LD50 (in vivo) is reported as ~770 mg/kg, the “Contractile force, Mean ± S.E.” value (isolated rabbit hearts [1]; 1·10^-5 g/lt) is reported as 77.5 ± 3.29% and the “Contractile force, Mean ± S.E.” value (isolated rabbit hearts [1]; 1·10^-6 g/lt) is reported as 32.5 ± 4.38%. For the same molecule, the “Contractile force, Mean ± S.E.” value (isolated rabbit hearts [1]; 5·10^-6 g/lt) was 42.9 ± 6.22%, the “Coronary flow, Mean ± S.E.” value (isolated rabbit hearts [2]; 1·10^-5 g/lt) was 90.05 ± 7.10% and the “Coronary flow, Mean ± S.E.” value (isolated rabbit hearts [2]; 1·10^-6 g/lt) was 75.80 ± 5.92%. For the same molecule, the “Coronary flow, Mean ± S.E.” value (isolated rabbit hearts [2]; 5·10^-6 g/lt) was 76.30 ± 11.9%, the inhibition at 0.001 µg/mL (isolated rat atrium; [3]) was 7.18% and the inhibition at 0.01 µg/mL (isolated rat atrium; [3]) was 18.6%. The inhibition at 0.1 µg/mL (isolated rat atrium; [3]) was 71%, the inhibition at 0.001 µg/mL (isolated rat atrium; [4]) was 6.08% and the inhibition at 0.01 µg/mL (isolated rat atrium; [4]) was 15%. The inhibition at 0.1 µg/mL (isolated rat atrium; [4]) was 23.6%, the activation at 0.001 µg/mL (isolated rat atrium; [5]) was 14.5% and the activation at 0.01 µg/mL (isolated rat atrium; [5]) was 16.8%. It also gave an activation at 0.1 µg/mL (isolated rat atrium; [5]) of 27.4%, an activation at 0.001 µg/mL (isolated rat atrium; [6]) of 3.32% and an activation at 0.01 µg/mL (isolated rat atrium; [6]) of 15.3%. It also gave an activation at 0.1 µg/mL (isolated rat atrium; [6]) of 21.7%, a responders at 100 mg/kg (female rats; session 1 (every 15 minutes)) of 0% and a responders at 100 mg/kg (female rats; session 2 (every 15 minutes)) of 0%. It also gave a responders at 100 mg/kg (female rats; session 3 (every 15 minutes)) of 0%, a responders at 100 mg/kg (female rats; session 4 (every 15 minutes)) of 0% and a responders at 100 mg/kg (female rats; session 5 (every 15 minutes)) of 0%. The responders at 100 mg/kg (female rats; session 6 (every 15 minutes)) was 10%, the responders at 200 mg/kg (female rats; session 1 (every 15 minutes)) was 0% and the responders at 200 mg/kg (female rats; session 2 (every 15 minutes)) was 0%. For the same molecule, the responders at 200 mg/kg (female rats; session 3 (every 15 minutes)) was 0%, the responders at 200 mg/kg (female rats; session 4 (every 15 minutes)) was 30% and the responders at 200 mg/kg (female rats; session 5 (every 15 minutes), * p < 0.05) was 50%. For the same molecule, the responders at 200 mg/kg (female rats; session 6 (every 15 minutes), * p < 0.05) was 50%, the responders at 400 mg/kg (female rats; read-out: percentage of animals staying on the rota-rod more than 180 seconds, 400 mg/kg i.p., session 1 (every 15 minutes)) was 0% and the responders at 400 mg/kg (female rats; read-out: percentage of animals staying on the rota-rod more than 180 seconds, 400 mg/kg i.p., session 2 (every 15 minutes)) was 10%. The responders at 400 mg/kg (female rats; read-out: percentage of animals staying on the rota-rod more than 180 seconds, 400 mg/kg i.p., session 3 (every 15 minutes)) was 10%, the responders at 400 mg/kg (female rats; read-out: percentage of animals staying on the rota-rod more than 180 seconds, 400 mg/kg i.p., session 4 (every 15 minutes)) was 10% and the responders at 400 mg/kg (female rats; read-out: percentage of animals staying on the rota-rod more than 180 seconds, 400 mg/kg i.p., session 5 (every 15 minutes)) was 40%. For the same molecule, the responders at 400 mg/kg (female rats; read-out: percentage of animals staying on the rota-rod more than 180 seconds, 400 mg/kg i.p., session 6 (every 15 minutes), * p < 0.05) was 50%, the responders at 600 mg/kg (female rats; read-out: percentage of animals staying on the rota-rod more than 180 seconds, 600 mg/kg i.p., session 1 (every 15 minutes)) was 0% and the responders at 600 mg/kg (female rats; read-out: percentage of animals staying on the rota-rod more than 180 seconds, 600 mg/kg i.p., session 2 (every 15 minutes)) was 0%. It also gave a responders at 600 mg/kg (female rats; read-out: percentage of animals staying on the rota-rod more than 180 seconds, 600 mg/kg i.p., session 3 (every 15 minutes)) of 10%, a responders at 600 mg/kg (female rats; read-out: percentage of animals staying on the rota-rod more than 180 seconds, 600 mg/kg i.p., session 4 (every 15 minutes)) of 20% and a responders at 600 mg/kg (female rats; read-out: percentage of animals staying on the rota-rod more than 180 seconds, 600 mg/kg i.p., session 5 (every 15 minutes)) of 40%. It also gave a responders at 600 mg/kg (female rats; read-out: percentage of animals staying on the rota-rod more than 180 seconds, 600 mg/kg i.p., session 6 (every 15 minutes), * p < 0.05) of 50%.
For CCCC(=O)OC(CC(=O)[O-])C[N+](C)(C)C (racemic) [butyryl-d,l-carnitine], the “Contractile force, Mean ± S.E.” value (isolated rabbit hearts [1]; 1·10^-5 g/lt) was 51.5 ± 5.02%, the “Contractile force, Mean ± S.E.” value (isolated rabbit hearts [1]; 1·10^-6 g/lt) was 30.6 ± 4.51% and the “Contractile force, Mean ± S.E.” value (isolated rabbit hearts [1]; 5·10^-6 g/lt) was 35.6 ± 6.19%. For the same molecule, the “Coronary flow, Mean ± S.E.” value (isolated rabbit hearts [2]; 1·10^-5 g/lt) was 90.12 ± 8.18%, the “Coronary flow, Mean ± S.E.” value (isolated rabbit hearts [2]; 1·10^-6 g/lt) was 74.01 ± 6.19% and the inhibition at 0.1 µg/mL (isolated rat atrium; 1·10^-4 g/lt, decrease, read-out: Mean percent variation versus controls: excitability (-%)) was 63.7%. It also gave an inhibition at 0.1 µg/mL (isolated rat atrium; 1·10^-4 g/lt, decrease, read-out: Mean percent variation versus controls: frequency max (-%)) of 62.3%, an activation at 0.1 µg/mL (isolated rat atrium; 1·10^-4 g/lt, increase, read-out: Mean percent variation versus controls: refractory period (+%)) of 38% and an activation at 0.1 µg/mL (isolated rat atrium; 1·10^-4 g/lt, increase, read-out: Mean percent variation versus controls: rheobase (+%)) of 55%. The inhibition at 0.01 µg/mL (isolated rat atrium; 1·10^-5 g/lt, decrease, read-out: Mean percent variation versus controls: excitability (-%)) was 31.9%, the inhibition at 0.01 µg/mL (isolated rat atrium; 1·10^-5 g/lt, decrease, read-out: Mean percent variation versus controls: frequency max (-%)) was 30.4% and the activation at 0.01 µg/mL (isolated rat atrium; 1·10^-5 g/lt, increase, read-out: Mean percent variation versus controls: refractory period (+%)) was 25.9%. The activation at 0.01 µg/mL (isolated rat atrium; 1·10^-5 g/lt, increase, read-out: Mean percent variation versus controls: rheobase (+%)) was 40.8%, the inhibition at 0.001 µg/mL (isolated rat atrium; 1·10^-6 g/lt, decrease, read-out: Mean percent variation versus controls: excitability (-%)) was 12.9% and the inhibition at 0.001 µg/mL (isolated rat atrium; 1·10^-6 g/lt, decrease, read-out: Mean percent variation versus controls: frequency max (-%)) was 24.8%. For the same molecule, the activation at 0.001 µg/mL (isolated rat atrium; 1·10^-6 g/lt, increase, read-out: Mean percent variation versus controls: refractory period (+%)) was 18.2%, the activation at 0.001 µg/mL (isolated rat atrium; 1·10^-6 g/lt, increase, read-out: Mean percent variation versus controls: rheobase (+%)) was 28.3% and the responders at 300 mg/kg (female rats; session 1 (every 15 minutes), read-out: percentage of animals staying on the rota-rod more than 180 seconds) was 0%. For the same molecule, the responders at 300 mg/kg (female rats; session 2 (every 15 minutes), read-out: percentage of animals staying on the rota-rod more than 180 seconds) was 0%, the responders at 300 mg/kg (female rats; session 3 (every 15 minutes), read-out: percentage of animals staying on the rota-rod more than 180 seconds) was 0% and the responders at 300 mg/kg (female rats; session 4 (every 15 minutes), read-out: percentage of animals staying on the rota-rod more than 180 seconds) was 0%. The responders at 300 mg/kg (female rats; session 5 (every 15 minutes), read-out: percentage of animals staying on the rota-rod more than 180 seconds) was 0%, the responders at 300 mg/kg (female rats; session 6 (every 15 minutes), read-out: percentage of animals staying on the rota-rod more than 180 seconds) was 10% and the responders at 400 mg/kg (female rats; 400 mg/kg i.p., session 1 (every 15 minutes), read-out: percentage of animals staying on the rota-rod more than 180 seconds) was 0%. For the same molecule, the responders at 400 mg/kg (female rats; 400 mg/kg i.p., session 2 (every 15 minutes), read-out: percentage of animals staying on the rota-rod more than 180 seconds) was 0%, the responders at 400 mg/kg (female rats; 400 mg/kg i.p., session 3 (every 15 minutes), read-out: percentage of animals staying on the rota-rod more than 180 seconds) was 0% and the responders at 400 mg/kg (female rats; 400 mg/kg i.p., session 4 (every 15 minutes), read-out: percentage of animals staying on the rota-rod more than 180 seconds) was 10%. It also gave a responders at 400 mg/kg (female rats; 400 mg/kg i.p., session 5 (every 15 minutes), read-out: percentage of animals staying on the rota-rod more than 180 seconds) of 10%, a responders at 400 mg/kg (female rats; 400 mg/kg i.p., session 6 (every 15 minutes), * p < 0.05, read-out: percentage of animals staying on the rota-rod more than 180 seconds) of 20% and a responders at 600 mg/kg (female rats; 600 mg/kg i.p., session 1 (every 15 minutes), read-out: percentage of animals staying on the rota-rod more than 180 seconds) of 0%. For the same molecule, the responders at 600 mg/kg (female rats; 600 mg/kg i.p., session 2 (every 15 minutes), read-out: percentage of animals staying on the rota-rod more than 180 seconds) was 0%, the responders at 600 mg/kg (female rats; 600 mg/kg i.p., session 3 (every 15 minutes), read-out: percentage of animals staying on the rota-rod more than 180 seconds) was 10% and the responders at 600 mg/kg (female rats; 600 mg/kg i.p., session 4 (every 15 minutes), read-out: percentage of animals staying on the rota-rod more than 180 seconds) was 20%. The responders at 600 mg/kg (female rats; 600 mg/kg i.p., session 5 (every 15 minutes), read-out: percentage of animals staying on the rota-rod more than 180 seconds) was 20% and the responders at 600 mg/kg (female rats; 600 mg/kg i.p., session 6 (every 15 minutes), * p < 0.05, read-out: percentage of animals staying on the rota-rod more than 180 seconds) was 40%.
